Among the test systems are 786-0; A498; COLO 205; DU-145; HOP-62; Hs-578T; LOX IMVI; OVCAR-3; OVCAR-8; RPMI-8226; SK-OV-3; SW-620; TK-10; U-251; UACC-62; HCC 2998; NCI-H460; RXF 393; UACC-257.
Experiment in all cases: NCI anticancer screen, dose series, 48 h

The structures appear in SMILES notation.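 Test compounds were applied to cells in 96-well plates for 48 hours at 5 doses. GI50 marks 50% less growth.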 Calls of active or inactive are those of the source. Rule as the data show it: active = GI50 up to about 1.1 µM and inactive = higher.

As for `CCC(C)C(NC(=O)c1cccc2c(=O)c3ccccc3[nH]c12)C(=O)O` (configuration not stated), the GI50 in the test on 786-0, in the test on A498, in the test with COLO 205, in the test with DU-145, in the test on HOP-62 and in the test on Hs-578T was > 100 µM (inactive) each time. Moreover, the GI50 with LOX IMVI was > 100 µM (inactive); with OVCAR-3, > 100 µM (inactive); with OVCAR-8, > 100 µM (inactive); in the test with RPMI-8226 it was 57.1 µM (inactive); with SK-OV-3 it was > 100 µM (inactive); in the test on SW-620 it was > 100 µM (inactive). The GI50 in the test on TK-10 was > 100 µM (inactive); in the test with U-251, 73.5 µM (inactive); in the test on UACC-62, > 100 µM (inactive).

As for `Cc1cc(C)nc(NS(=O)(=O)c2ccc(Nc3c4ccccc4nc4c(C(=O)Nc5ccc(S(=O)(=O)N=C(N)N)cc5)cccc34)cc2)n1`, the GI50 in the test on 786-0, in the test with A498, in the test with COLO 205, in the test on HCC 2998, in the test on HOP-62 and in the test on LOX IMVI was > 100 µM (inactive) in each case. For the same compound, the GI50 in the test on NCI-H460 is > 100 µM (inactive); in the test on OVCAR-3, > 100 µM (inactive); in the test with OVCAR-8, > 100 µM (inactive); with RPMI-8226, > 100 µM (inactive); in the test with RXF 393, 24.4 µM (inactive); with SK-OV-3 it was > 100 µM (inactive). Besides, the GI50 in the test on SW-620 is > 100 µM (inactive); with TK-10, > 100 µM (inactive); in the test with U-251, 98.9 µM (inactive); in the test on UACC-257, > 100 µM (inactive); in the test on UACC-62 it was > 100 µM (inactive).

Consider `CCC1C(c2cccc(OC)c2O)c2cc3c(cc2OC1N1CCCC1)OCO3` (configuration not stated), for which the GI50 in the test on 786-0 was 16.1 µM (inactive); in the test on COLO 205 it was > 10 µM (inactive); with DU-145, > 10 µM (inactive); in the test with HCC 2998, 10 µM (inactive); in the test with HOP-62, 18.4 µM (inactive); in the test with Hs-578T, 3.75 µM (inactive). Also, the GI50 in the test with LOX IMVI was 23.3 µM (inactive); with NCI-H460, 20.2 µM (inactive); in the test on OVCAR-3 it was 13.8 µM (inactive); in the test on OVCAR-8 it was 20.6 µM (inactive); with RPMI-8226 it was 12.6 µM (inactive); with SW-620, 12.2 µM (inactive). For the same compound, the GI50 in the test on TK-10 is 16.4 µM (inactive); with UACC-257, 17.8 µM (inactive); in the test on UACC-62, 17.5 µM (inactive).

With `COC(=O)C12CCC(CC1=O)C2(C)C` (configuration not stated), the GI50 in the test on 786-0, with A498, in the test on COLO 205, with HCC 2998, with HOP-62 and in the test on LOX IMVI was > 100 µM (inactive) in each case. The GI50 in the test with NCI-H460, with OVCAR-3, in the test on OVCAR-8, in the test on RPMI-8226, in the test on RXF 393 and in the test with SK-OV-3 was > 100 µM (inactive) in each case. Further, the GI50 in the test with SW-620, in the test with TK-10, with U-251, in the test on UACC-257 and in the test on UACC-62 was > 100 µM (inactive) throughout.

Regarding `N#CC1CC(c2ccccc2)Nc2cc(Cl)ccc2N1` (configuration not stated), the GI50 in the test with 786-0 is 24.1 µM (inactive); in the test with A498 it was > 100 µM (inactive); in the test on COLO 205 it was 7.11 µM (inactive); with HCC 2998 it was > 100 µM (inactive); with HOP-62, 55.7 µM (inactive); with LOX IMVI, 33.1 µM (inactive). Moreover, the GI50 in the test on NCI-H460 is 35.4 µM (inactive); in the test on OVCAR-3, 19.3 µM (inactive); with OVCAR-8, 33 µM (inactive); in the test with RPMI-8226, 6.31 µM (inactive); in the test on RXF 393, 38.8 µM (inactive); in the test with SK-OV-3, > 100 µM (inactive). The GI50 with SW-620 was 4.5 µM (inactive); with TK-10, > 100 µM (inactive); with U-251, 30.7 µM (inactive); in the test with UACC-257 it was > 81.7 µM (inactive); with UACC-62, 31.6 µM (inactive).

With `C/C(=C\C(=N\NC(=N)N)c1ccccc1)c1ccccc1`, the GI50 is 0.843 µM (active) with 786-0; 0.0348 µM (active) with COLO 205; 0.406 µM (active) in the test on DU-145; 0.26 µM (active) in the test on HCC 2998; 0.0822 µM (active) in the test with HOP-62; 1.32 µM (inactive) in the test on Hs-578T. For the same compound, the GI50 was 1.23 µM (inactive) in the test on LOX IMVI; 2.25 µM (inactive) in the test with NCI-H460; 0.409 µM (active) in the test on OVCAR-3; 1.24 µM (inactive) in the test with OVCAR-8; 1.01 µM (active) in the test with RPMI-8226; 1.41 µM (inactive) in the test with RXF 393. Moreover, the GI50 in the test with SK-OV-3 was 4.3 µM (inactive); in the test on SW-620 it was 0.318 µM (active); with TK-10, 1.17 µM (inactive); with U-251 it was 0.652 µM (active); with UACC-62, 1.15 µM (inactive).

As to `COCCN1C2=CCCCC2=Nc2c1nc(N)[nH]c2=O`, the GI50 in the test with 786-0, with A498, in the test with COLO 205, with HCC 2998, in the test on HOP-62 and in the test with LOX IMVI was > 100 µM (inactive) each time. Further, the GI50 in the test with NCI-H460, in the test with OVCAR-3, in the test with OVCAR-8, in the test with RPMI-8226, in the test with RXF 393 and in the test with SK-OV-3 was > 100 µM (inactive) each time. Besides, the GI50 in the test on TK-10, in the test on U-251, with UACC-257 and in the test on UACC-62 was > 100 µM (inactive) in each case.

`N#Cc1c(O)c2ccccc2[nH]c1=O`: the GI50 in the test with 786-0, with A498, in the test on COLO 205, in the test with DU-145, in the test on HCC 2998 and in the test with HOP-62 was > 100 µM (inactive) throughout. In addition, the GI50 with LOX IMVI, with OVCAR-3, with OVCAR-8, in the test with RPMI-8226, with RXF 393 and with SK-OV-3 was > 100 µM (inactive) each time. Also, the GI50 in the test on SW-620, with TK-10, in the test with U-251, in the test on UACC-257 and in the test on UACC-62 was > 100 µM (inactive) each time.

`BrCCCCCOc1ccc(-c2c3ccccc3c(-c3ccc(OCCCCCBr)cc3)c3ccccc23)cc1`: the GI50 is > 100 µM (inactive) in the test on 786-0; > 100 µM (inactive) with COLO 205; > 100 µM (inactive) with DU-145; > 100 µM (inactive) in the test with HCC 2998; > 100 µM (inactive) in the test with HOP-62; 35.7 µM (inactive) in the test on Hs-578T. Also, the GI50 in the test on NCI-H460, in the test with OVCAR-8, with RPMI-8226, in the test with RXF 393, in the test with SK-OV-3 and in the test on SW-620 was > 100 µM (inactive) in each case. For the same compound, the GI50 in the test with TK-10, with U-251, in the test on UACC-257 and in the test with UACC-62 was > 100 µM (inactive) in each case.

Source of the values: ChEMBL document CHEMBL1201862, “PubChem BioAssay data set” (2004).
